Assay results as given in ChEMBL document CHEMBL1151427, “Intrinsic novobiocin resistance in Staphylococcus saprophyticus” (2007).
Values after ≈ are worked out from the molar mass of the structure shown.

Assays:
Format in all cases: functional
[1] = system: Staphylococcus aureus; assay: Antimicrobial activity against Staphylococcus aureus RN4220 harboring tetracycline-regulable expression vector pAJ96 expressing Staphylococcus saprophyticus GyrB gene after 24 hrs by agar dilution method; details: RN4220, 24 h
[2] = system: Staphylococcus aureus; assay: Antimicrobial activity against Staphylococcus aureus RN4220 harboring tetracycline-regulable expression vector pAJ96 expressing Staphylococcus saprophyticus GyrB G85D mutant gene after 24 hrs by agar dilution method; details: RN4220, 24 h
[3] = system: Staphylococcus aureus; assay: Antimicrobial activity against Staphylococcus aureus RN4220 harboring tetracycline-regulable expression vector pAJ96 after 24 hrs by agar dilution method; details: RN4220, 24 h
[4] = system: Staphylococcus aureus; assay: Antimicrobial activity against Staphylococcus aureus RN4220 after 24 hrs by agar dilution method; details: RN4220, 24 h
[5] = system: Staphylococcus aureus; assay: Antimicrobial activity against Staphylococcus aureus RN4220 harboring tetracycline-regulable expression vector pAJ96 expressing Staphylococcus aureus GyrB gene after 24 hrs by agar dilution method; details: RN4220, 24 h
[6] = system: Staphylococcus saprophyticus; assay: Antimicrobial activity against Staphylococcus saprophyticus ATCC 15305 after 24 hrs by agar dilution method; details: ATCC 15305, 24 h
[7] = Ratio of MIC for Staphylococcus aureus RN4220 harboring tetracycline-regulable expression vector pAJ96 expressing Staphylococcus saprophyticus GyrB gene to MIC for Staphylococcus aureus SH1000
[8] = Ratio of MIC for Staphylococcus aureus RN4220 harboring tetracycline-regulable expression vector pAJ96 expressing Staphylococcus saprophyticus GyrB gene to MIC for Staphylococcus aureus RN4220
[9] = system: Staphylococcus aureus; assay: Antimicrobial activity against Staphylococcus aureus RN4220 harboring tetracycline-regulable expression vector pAJ96 expressing Staphylococcus saprophyticus GyrB G85D, K140R mutant gene after 24 hrs by agar dilution method; details: RN4220, 24 h
[10] = system: Staphylococcus aureus; assay: Antimicrobial activity against Staphylococcus aureus RN4220 harboring tetracycline-regulable expression vector pAJ96 expressing Staphylococcus saprophyticus GyrB K140R mutant gene after 24 hrs by agar dilution method; details: RN4220, 24 h
[11] = system: Staphylococcus aureus; assay: Antimicrobial activity against Staphylococcus aureus SH1000 after 24 hrs by agar dilution method; details: SH1000, 24 h

## CO[C@@H]1[C@@H](OC(N)=O)[C@@H](O)[C@H](Oc2ccc3c(O)c(NC(=O)c4ccc(O)c(CC=C(C)C)c4)c(=O)oc3c2C)OC1(C)C [NOVOBIOCIN]
[1]
  MIC: 8 µg/mL (≈ 13.1 µM)
[2]
  MIC: 1 µg/mL (≈ 1.63 µM)
[3]
  MIC: 0.125 µg/mL (≈ 0.204 µM)
[4]
  MIC: 0.125 µg/mL (≈ 0.204 µM)
[5]
  MIC: 0.125 µg/mL (≈ 0.204 µM)
[6]
  MIC: 16 µg/mL (≈ 26.1 µM)
[7]
  Ratio: 64
[8]
  Ratio: 64
[9]
  MIC: 0.125 µg/mL (≈ 0.204 µM)
[10]
  MIC: 2 µg/mL (≈ 3.26 µM)
[11]
  MIC: 0.125 µg/mL (≈ 0.204 µM)
